Literature values, collected in US20060003004A1 (Collegium Pharmaceutical, Inc., priority 2002, published 2006).
Like-named read-outs stand apart in the source and are kept apart here. Marks after values point to notes of the source that are not given here.

How the values were obtained:
[1] = 40-120 mg/day, 1032 patients
[2] = not given; remark: listed apart in the source
[3] = intravenous, 10 patients
uptake of dopamine = uptake of dopamine (Homo sapiens, UniProt Q01959)
[4] = test system: alpha adrenergic receptors
[5] = test system: beta adrenergic receptors
[6] = test system: beta adrenoceptors in rat cortex; settings: after chronic administration
[7] = not given; remark: listed apart in the source
[8] = for Participants who failed the dose escalation: escalation to 200 mg daily
[9] = n=1,033
[10] = Phase 2 and Phase 3 depression studies
[11] = 100 mg/day twice daily, N = 1871
[12] = 200 mg/day twice daily, N = 865

Chain of uptake of dopamine (Q01959 whole entry): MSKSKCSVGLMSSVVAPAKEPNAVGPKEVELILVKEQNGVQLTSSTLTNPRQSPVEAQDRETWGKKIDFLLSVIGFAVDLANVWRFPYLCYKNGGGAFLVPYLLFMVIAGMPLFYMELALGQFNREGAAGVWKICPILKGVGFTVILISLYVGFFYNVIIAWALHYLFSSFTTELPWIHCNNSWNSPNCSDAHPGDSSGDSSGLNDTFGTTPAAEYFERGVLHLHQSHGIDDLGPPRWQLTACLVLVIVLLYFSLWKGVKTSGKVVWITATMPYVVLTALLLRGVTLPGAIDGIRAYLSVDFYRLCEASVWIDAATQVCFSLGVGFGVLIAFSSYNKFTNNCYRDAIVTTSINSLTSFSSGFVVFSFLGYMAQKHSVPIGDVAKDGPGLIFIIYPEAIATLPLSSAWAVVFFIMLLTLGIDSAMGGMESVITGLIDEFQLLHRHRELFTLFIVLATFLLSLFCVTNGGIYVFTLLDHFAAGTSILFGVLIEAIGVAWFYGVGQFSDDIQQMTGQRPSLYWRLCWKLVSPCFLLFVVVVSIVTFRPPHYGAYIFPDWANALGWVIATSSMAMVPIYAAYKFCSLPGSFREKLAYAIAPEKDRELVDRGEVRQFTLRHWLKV

In the case of `CNCC[C@H](Oc1cccc2ccccc12)c1cccs1` [duloxetine], the “Rate of adverse events nausea, dry mouth, fatigue, dizziness, constipation, somnolence, decreased appetite, and sweating” value [1] is listed as “more than 5%”.

In the case of `CCN(CC)C(=O)C1(c2ccccc2)CC1CN` (stereo not shown) [milnacipran, Milnacipran], the “Frequency of Adverse Experiences: Abdominal Pain” value (50 mg/day twice daily, N = 426) is listed as 6.1%, the “Frequency of Adverse Experiences: Agitation” value (from here on “Frequency … Agitation”) (50 mg/day twice daily, N = 426) is listed as 1.6% and the “Frequency of Adverse Experiences: Anxiety” value (from here on “Frequency … Anxiety”) (50 mg/day twice daily, N = 426) is listed as 2.8%. The “Frequency of Adverse Experiences: Dry mouth” value (“Frequency … Dry mouth” below) (50 mg/day twice daily, N = 426) was 9.4%, the “Frequency of Adverse Experiences: Dyspepsia” value (“Frequency … Dyspepsia” for short) (50 mg/day twice daily, N = 426) was 3.5% and the “Frequency of Adverse Experiences: Dysuria” value (from here on “Frequency … Dysuria”) (50 mg/day twice daily, N = 426) was 1.4%. The “Frequency of Adverse Experiences: Fatigue” value (“Frequency … Fatigue” below) (50 mg/day twice daily, N = 426) was 2.8%, the “Frequency of Adverse Experiences: Headache” value (shortened to “Frequency … Headache”) (50 mg/day twice daily, N = 426) was 14.6% and the “Frequency of Adverse Experiences: Hot flushes” value (from here on “Frequency … Hot flushes”) (50 mg/day twice daily, N = 426) was 1.6%. The “Frequency of Adverse Experiences: Increased Sweating” value (“Frequency … Increased Sweating” below) (50 mg/day twice daily, N = 426) was 14.0%, the “Frequency of Adverse Experiences: Insomnia” value (from here on “Frequency … Insomnia”) (50 mg/day twice daily, N = 426) was 9.2% and the “Frequency of Adverse Experiences: Nausea” value (50 mg/day twice daily, N = 426) was 12.7%. The “Frequency of Adverse Experiences: Nervousness” value (“Frequency … Nervousness” for short) (50 mg/day twice daily, N = 426) was 4.2%, the “Frequency of Adverse Experiences: Palpitations” value (“Frequency … Palpitations” below) (50 mg/day twice daily, N = 426) was 2.3% and the “Frequency of Adverse Experiences: Somnolence” value (“Frequency … Somnolence” below) (50 mg/day twice daily, N = 426) was 5.4%. The “Frequency of Adverse Experiences: Tremor” value (50 mg/day twice daily, N = 426) was 0.9%, the “Frequency of Adverse Experiences: Vertigo” value (from here on “Frequency … Vertigo”) (50 mg/day twice daily, N = 426) was 1.6% and the “Frequency of Adverse Experiences: Vomiting” value (“Frequency … Vomiting” below) (50 mg/day twice daily, N = 426) was 3.8%. The “Frequency … Agitation” value [11] was 3.3%, the “Frequency … Anxiety” value [11] was 4.1% and the “Frequency … Dry mouth” value [11] was 7.9%. For the same compound, the “Frequency … Dyspepsia” value [11] was 2.1%, the “Frequency … Dysuria” value [11] was 2.1* % and the “Frequency … Fatigue” value [11] was 2.5%. For the same compound, the “Frequency … Headache” value [11] was 8.4%, the “Frequency … Hot flushes” value [11] was 3.0% and the “Frequency … Increased Sweating” value [11] was 4.3* %. For the same compound, the “Frequency … Insomnia” value [11] was 6.1%, the “Frequency of Adverse Experiences: Nausea” value [11] was 11.2% and the “Frequency … Nervousness” value [11] was 2.0%. For the same compound, the “Frequency … Palpitations” value [11] was 2.7%, the “Frequency … Somnolence” value [11] was 2.3% and the “Frequency of Adverse Experiences: Tremor” value [11] was 2.5%. The “Frequency … Vertigo” value [11] was 5.0%, the “Frequency … Vomiting” value [11] was 3.9% and the “Frequency of Adverse Experiences: Abdominal Pain” value [12] was 7.6%. The “Frequency … Agitation” value [12] was 2.9%, the “Frequency … Anxiety” value [12] was 5.1% and the “Frequency … Dry mouth” value [12] was 9.0%. The “Frequency … Dyspepsia” value [12] was 2.2%, the “Frequency … Dysuria” value [12] was 3.7* % and the “Frequency … Fatigue” value [12] was 4.4%. The “Frequency … Headache” value [12] was 13.5%, the “Frequency … Hot flushes” value [12] was 3.6% and the “Frequency … Increased Sweating” value [12] was 11.6* %. For the same compound, the “Frequency … Insomnia” value [12] was 11.3%, the “Frequency of Adverse Experiences: Nausea” value [12] was 19.4* % and the “Frequency … Nervousness” value [12] was 2.8%. For the same compound, the “Frequency … Palpitations” value [12] was 4.6%, the “Frequency … Somnolence” value [12] was 3.5% and the “Frequency of Adverse Experiences: Tremor” value [12] was 6.7* %. The “Frequency … Vertigo” value [12] was 4.5%, the “Frequency … Vomiting” value [12] was 7.9* % and the “Adverse events: headache” value ([2]; 100 mg/day twice daily) was 9%. The “Adverse events: abdominal pain” value ([2]; 200 mg/day twice daily) was 7%, the “Adverse events: headache” value ([2]; 200 mg/day twice daily) was 8% and the “Adverse events: nausea and vomiting” value ([2]; 200 mg/day twice daily) was 7%. For the same compound, the “Patients reporting transient nausea” value [3] was “five of them reported transient nausea”, the “Effect on uptake of dopamine” value (uptake of dopamine) was “does not affect” and the “Affinity for alpha adrenergic receptors” value [4] was “no affinity”. For the same compound, the “Affinity for beta adrenergic receptors” value [5] was “no affinity”, the “Affinity for muscarinic receptors” value (muscarinic receptors) was “no affinity” and the “Affinity for histaminergic receptors” value (histaminergic receptors) was “no affinity”. For the same compound, the “Affinity for dopaminergic receptors” value (dopaminergic receptors) was “no affinity”, the “Effect on number of beta adrenoceptors in rat cortex” value [6] was “does not affect” and the “Parent drug eliminated unchanged via the kidneys” value ([7]; humans) was 90%. For the same compound, the half-life ([7]; humans) was “approximately 8 hours”, the “Time within which oral doses are absorbed and distributed in the body” value ([7]; oral doses) was 1 to 2 h and the “Metabolites as share of the concentration of the parent drug” value ([7]; ten metabolites formed in the liver) was “about 10%”. For the same compound, the “Global pain score, mean value” ([8]; 1-7 scale (1 very much improved, 4 unchanged, 7 very much worse), FMS patients who reached endpoint, placebo 4.3, p=0.0001) was 2.3, the “Participants who failed the dose escalation” value ([8]; BID-IR group) was 6% and the “Participants who failed the dose escalation” value ([8]; QD-IR group) was 19%.

In the case of `COc1ccc(C(CN(C)C)C2(O)CCCCC2)cc1` (stereo not shown) [venlafaxine], the “Adverse experience incidence: anorexia” value [9] is listed as 11%, the “Adverse experience incidence: anxiety” value [9] is listed as 6% and the “Adverse experience incidence: constipation” value [9] is listed as 15%. The “Adverse experience incidence: dizziness” value [9] was 19%, the “Adverse experience incidence: dry mouth” value [9] was 22% and the “Adverse experience incidence: insomnia” value [9] was 18%. The “Adverse experience incidence: nausea” value [9] was 37%, the “Adverse experience incidence: nervousness” value [9] was 13% and the “Adverse experience incidence: somnolence” value [9] was 23%. The “Adverse experience incidence: tremor” value [9] was 5%, the “Adverse experience incidence: vomiting” value [9] was 6% and the “Patients who discontinued treatment that did so due to nausea” value [10] was about 32%.
